Experimental data taken from US20260159512A1, “BCAT2 INHIBITORS” (AGIOS PHARMACEUTICALS, INC., priority 2021, published 2026).
Several values for one entry are separate records, joined by “and”; a condition that tells them apart may be missing. Equal entries are not always repeated.

What was measured:
Details in all cases: average where tested multiple times
BCAT2 [1] = biological target: T1, BCAT2 (Homo sapiens, UniProt O15382); assay: BCAT2 in vitro enzyme inhibition assay (resazurin/diaphorase-coupled fluorescence); format: biochemical
T1 sequence (O15382 28-392): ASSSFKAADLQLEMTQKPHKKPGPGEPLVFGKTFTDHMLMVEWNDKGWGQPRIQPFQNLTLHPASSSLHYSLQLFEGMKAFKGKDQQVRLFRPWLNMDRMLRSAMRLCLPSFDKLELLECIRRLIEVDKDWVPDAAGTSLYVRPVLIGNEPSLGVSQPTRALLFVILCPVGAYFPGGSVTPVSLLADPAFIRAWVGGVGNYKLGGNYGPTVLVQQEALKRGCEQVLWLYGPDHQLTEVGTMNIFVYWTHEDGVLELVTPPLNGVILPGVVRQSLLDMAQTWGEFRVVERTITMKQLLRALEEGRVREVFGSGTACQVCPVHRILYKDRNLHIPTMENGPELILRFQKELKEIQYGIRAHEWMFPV
Outline: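 Coupled fluorescence readout: glutamate formed from L-leucine/α-ketoglutarate transamination drives GDH/NAD/diaphorase reduction of resazurin (Ex 540/Em 590). Human BCAT2 was first exposed 1 h at room temperature to compound, top final 100 μM in 3-fold, 10-point series; substrate reaction ran 1 h before SDS quench, in technical duplicate with DMSO max and enzyme-free min controls.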

hBCAT1 = biological target: T2, hBCAT1 (Homo sapiens, UniProt P54687); assay: BCAT1 in vitro enzyme inhibition assay (resazurin/diaphorase-coupled fluorescence); format: biochemical
T2 sequence (P54687 1-386): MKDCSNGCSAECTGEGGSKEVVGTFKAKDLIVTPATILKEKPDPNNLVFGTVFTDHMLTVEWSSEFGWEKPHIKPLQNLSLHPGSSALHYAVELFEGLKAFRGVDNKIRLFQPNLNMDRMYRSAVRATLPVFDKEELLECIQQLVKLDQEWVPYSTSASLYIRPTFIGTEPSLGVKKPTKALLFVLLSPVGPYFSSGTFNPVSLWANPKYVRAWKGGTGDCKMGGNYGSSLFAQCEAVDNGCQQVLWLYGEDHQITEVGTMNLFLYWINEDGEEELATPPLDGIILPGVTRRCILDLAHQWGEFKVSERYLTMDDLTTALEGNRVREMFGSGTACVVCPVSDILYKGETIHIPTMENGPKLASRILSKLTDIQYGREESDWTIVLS
Outline: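 Ten-point, 3-fold compound series (top final 100 μM, delivered 1:50 from 50× DMSO stocks) tested against hBCAT1. Inhibition detected via diaphorase-coupled resazurin fluorescence, duplicate wells, with values from repeated runs averaged.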

BCAT2 [2] = biological target: T1, BCAT2; assay: BCAT2 in vitro cell inhibition using engineered A549 cells (KMV cell assay, 13C6-KMV by LC-MS/MS); format: cell-based; parameters: The result was an engineered A549 cell line that expressed endogenous BCAT2; endogenous in cells; host or cells: A549 cells with MUT and BCAT1 knocked out by CRISPR/CAS9; key to BCAT2 Cell Inhibition: A: less than or equal to 0.100 μM; B: greater than 0.100 and less than or equal to 0.500 μM; C: greater than 0.500 and less than or equal to 1.000 μM; d: greater than 1.000 μM; E: no fit

Row | SMILES | IC50 (BCAT2 [1]) | IC50 (hBCAT1) [nM] | IC50 (BCAT2 [2]) [nM] | BCAT2 Cell Inhibition (BCAT2 [2])
1 | O=C(N[C@H]1CCC[C@@H](n2c(-c3ccccc3F)nc3cnc(-n4nccn4)cc32)[C@@H]1O)c1ncc(Cl)s1 (single isomer, unassigned) [Example 113] | ≤ 100 nM | < 500 | ≤ 100 | –
2 | O=C(N[C@H]1CCC[C@@H](n2c(-c3ccccc3O)nc3cnc(-c4nc[nH]n4)cc32)C1)c1ncc(Cl)s1 [Example 340, 5-chloro-N-((1S,3R)-3-(2-(2-hydroxyphenyl)-6-(1H-1,2,4-triazol-3-yl)-1H-imidazo[4,5-c]pyridin-1-yl)cyclohexyl)thiazole-2-carboxamide] | ≤ 100 nM | < 500 | ≤ 100 | –
3 | CC(C)Cc1nc2cnc(-c3nccs3)cc2n1[C@@H]1CCC[C@H](NC(=O)c2ncc(Cl)s2)C1 [Example 163, 5-chloro-N-((1S,3R)-3-(2-isobutyl-6-(thiazol-2-yl)-1H-imidazo[4,5-c]pyridin-1-yl)cyclohexyl)thiazole-2-carboxamide] | ≤ 100 nM | < 500 | ≤ 100 | –
4 | O=C(NC1COCC(n2c(-c3ncccc3F)nc3cnc(-n4nccn4)cc32)C1)c1ncc(C(F)F)s1 (single isomer, unassigned) [Example 138, 5-(difluoromethyl)-N-(5-(2-(3-fluoropyridin-2-yl)-6-(2H-1,2,3-triazol-2-yl)-1H-imidazo[4,5-c]pyridin-1-yl)tetrahydro-2H-pyran-3-yl)thiazole-2-carboxamide] | ≤ 100 nM | 500 to 1000 | 100 to 500 | –
5 | O=C(N[C@H]1CCC[C@@H](n2c(-n3cccn3)nc3cnc(-n4nccn4)cc32)C1)c1ncc(C(F)F)s1 [Example 56, N-((1S,3R)-3-(2-(1H-pyrazol-1-yl)-6-(2H-1,2,3-triazol-2-yl)-1H-imidazo[4,5-c]pyridin-1-yl)cyclohexyl)-5-(difluoromethyl)thiazole-2-carboxamide] | ≤ 100 nM | 1000 to 5000 | 100 to 500 | –
6 | CC(C)Cc1nc2cnc(-c3ncnn3C)cc2n1[C@@H]1CCC[C@H](NC(=O)c2ncc(Cl)s2)C1 [Example 164, 5-chloro-N-((1S,3R)-3-(2-isobutyl-6-(1-methyl-1H-1,2,4-triazol-5-yl)-1H-imidazo[4,5-c]pyridin-1-yl)cyclohexyl)thiazole-2-carboxamide] | 100 to 500 nM and 500 to 1000 nM | > 5000 | 100 to 500 | E
7 | O=C(N[C@H]1CCC[C@@H](n2c(-c3ccccn3)nc3cnc(-n4cccn4)cc32)C1)c1ccc(Br)s1 [Example 30, N-((1S,3R)-3-(6-(1H-pyrazol-1-yl)-2-(pyridin-2-yl)-1H-imidazo[4,5-c]pyridin-1-yl)cyclohexyl)-5-bromothiophene-2-carboxamide] | ≤ 100 nM | 1000 to 5000 | 500 to 1000 | –
8 | O=C(N[C@H]1CCC[C@@H](n2c(Nc3ccccn3)nc3cnc(-n4nccn4)cc32)C1)c1ncc(C(F)F)s1 [Example 69, 5-(difluoromethyl)-N-((1S,3R)-3-(2-(pyridin-2-ylamino)-6-(2H-1,2,3-triazol-2-yl)-1H-imidazo[4,5-c]pyridin-1-yl)cyclohexyl)thiazole-2-carboxamide] | 100 to 500 nM | > 5000 | > 1000 | –
9 | Cn1ccc(-c2cc3c(cn2)nc(-c2ccccc2F)n3[C@@H]2CCC[C@H](NC(=O)c3ncc(Cl)s3)C2)n1 [Example 181, 5-chloro-N-((1S,3R)-3-(2-(2-fluorophenyl)-6-(1-methyl-1H-pyrazol-3-yl)-1H-imidazo[4,5-c]pyridin-1-yl)cyclohexyl)thiazole-2-carboxamide] | ≤ 100 nM | < 500 | ≤ 100 | –
10 | O=C(N[C@H]1CCC[C@@H](n2c(-c3ncccc3F)nc3cnc(-n4nccn4)cc32)C1)c1ncc(Br)s1 [Example 22, 5-bromo-N-((1S,3R)-3-(2-(3-fluoropyridin-2-yl)-6-(2H-1,2,3-triazol-2-yl)-1H-imidazo[4,5-c]pyridin-1-yl)cyclohexyl)thiazole-2-carboxamide] | ≤ 100 nM | < 500 | ≤ 100 | –
11 | O=C(N[C@H]1CCC[C@@H](n2c(-c3ccccc3F)nc3cnc(-n4ccnn4)cc32)C1)c1ccc(Br)s1 [Example 14, 5-bromo-N-((1S,3R)-3-(2-(2-fluorophenyl)-6-(1H-1,2,3-triazol-1-yl)-1H-imidazo[4,5-c]pyridin-1-yl)cyclohexyl)thiophene-2-carboxamide] | ≤ 100 nM | < 500 | ≤ 100 | –
12 | CC(C)C(F)c1nc2cnc(-c3ccccn3)cc2n1[C@@H]1CCC[C@H](NC(=O)c2ncc(Cl)s2)C1 (stereo partly drawn) [Example 322, 5-chloro-N-((1S,3R)-3-(2-(1-fluoro-2-methylpropyl)-6-(pyridin-2-yl)-1H-imidazo[4,5-c]pyridin-1-yl)cyclohexyl)thiazole-2-carboxamide] | ≤ 100 nM | 1000 to 5000 | 500 to 1000 | –
13 | O=C(N[C@H]1CCC[C@@H](n2c(-c3ccccc3F)nc3cnc(-n4nccn4)cc32)C1)c1ccc(Br)s1 [Example 15, 5-bromo-N-((1S,3R)-3-(2-(2-fluorophenyl)-6-(2H-1,2,3-triazol-2-yl)-1H-imidazo[4,5-c]pyridin-1-yl)cyclohexyl)thiophene-2-carboxamide] | ≤ 100 nM | < 500 | ≤ 100 | –

Now from value to molecule:

Row | IC50 (BCAT2 [1]) | IC50 (hBCAT1) [nM] | IC50 (BCAT2 [2]) [nM] | BCAT2 Cell Inhibition (BCAT2 [2]) | SMILES
14 | ≤ 100 nM | < 500 | ≤ 100 | – | CO[C@@H]1C[C@@H](NC(=O)c2ncc(Cl)s2)C[C@@H](n2c(-c3ccccc3F)nc3cnc(-n4nccn4)cc32)C1 (stereo in doubt) [Example 424, 5-chloro-N-((1S,3R,5R)-3-(2-(2-fluorophenyl)-6-(2H-1,2,3-triazol-2-yl)-1H-imidazo[4,5-c]pyridin-1-yl)-5-methoxycyclohexyl)thiazole-2-carboxamide]
15 | ≤ 100 nM | < 500 | 100 to 500 | – | CC(C)Cc1nc2cnc(-c3ncccn3)cc2n1C1CCCC(NC(=O)c2ncc(Cl)s2)C1O (stereo not shown) [Example 383, 5-chloro-N-(2-hydroxy-3-(2-isobutyl-6-(pyrimidin-2-yl)-1H-imidazo[4,5-c]pyridin-1-yl)cyclohexyl)thiazole-2-carboxamide]
16 | 100 to 500 nM | 1000 to 5000 | > 1000 | – | CC(C)Cc1nc2cnc(-c3cccc(C#N)n3)cc2n1[C@@H]1CCC[C@H](NC(=O)c2ncc(Cl)s2)[C@H]1O [Example 392, 5-chloro-N-((1S,2R,3R)-3-(6-(6-cyanopyridin-2-yl)-2-isobutyl-1H-imidazo[4,5-c]pyridin-1-yl)-2-hydroxycyclohexyl)thiazole-2-carboxamide]
17 | ≤ 100 nM | 1000 to 5000 | > 1000 | – | N#Cc1cccc(-c2nc3cnc(-c4nc[nH]n4)cc3n2[C@@H]2CCC[C@H](NC(=O)c3ccc(Cl)s3)C2)c1F [Example 365, 5-chloro-N-((1S,3R)-3-(2-(3-cyano-2-fluorophenyl)-6-(1H-1,2,4-triazol-3-yl)-1H-imidazo[4,5-c]pyridin-1-yl)cyclohexyl)thiophene-2-carboxamide]
18 | ≤ 100 nM | < 500 | – | E | O=C(N[C@H]1CCC[C@@H](n2c(-c3ccccc3OC(F)F)nc3cnc(-c4nc[nH]n4)cc32)C1)c1ncc(Cl)s1 [Example 367, 5-chloro-N-((1S,3R)-3-(2-(2-(difluoromethoxy)phenyl)-6-(1H-1,2,4-triazol-3-yl)-1H-imidazo[4,5-c]pyridin-1-yl)cyclohexyl)thiazole-2-carboxamide]
